US12559776B2, “Chemical and biological integrated degradation process for polyethylene terephthalate (PET), for recycling pet” (Korea University Research and Business Foundation, priority 2021, dated 2026)
Blank lines part the entries; values can stand above or below the molecule they belong to.

Legend:
[1] = PET glycolysis in EG with catalyst (microwave); conditions: 190 °C
Description: To establish an economical and efficient PET upcycling process, a chemical PET depolymerization process is required. […] A conventional PET glycolysis method mainly used a heavy metal catalyst. The use of a metal catalyst may have an adverse effect on the biological process of the integrated process and have adverse environmental effects, so glycolysis was performed in a microwave digestion system using betaine instead of a metal catalyst. Specifically, 3.5 to 11.5 g of granular PET and a specific amount of EG were reacted using betaine as a catalyst at 190° C. for 30 to 120 minutes. To maintain the reaction conditions, a microwave digester (Milestone, Shelton, CT) with a thermocouple and magnetic stirrer function was used, and the reaction was performed in a 100 mL reaction vessel for exclusive use of a microwave digester.
To determine the glycolysis effect of betaine, first, the input amount of a substrate was optimized. Glycolysis was performed at 190° C. for 30 minutes by adding 0.5% (catalyst/PET, w/w ratio) betaine to a PET substrate and an EG solvent at a molar ratio (PET:EG) of 1:3, 1:4, 1:5, 1:6, 1:10, or 1:20. Here, the major product BHET and a by-product MHET were produced. The BHET and MHET concentrations were measured by liquid chromatography. As a result, it was confirmed that the highest yield was obtained under a substrate input condition corresponding to a PET:EG molar ratio of 1:5. However, considering the concentration of the final product, it was confirmed that the yield was even higher under the substrate input condition corresponding to the PET:EG molar ratio of 1:4. […] Accordingly, the substrate input condition corresponding to a PET:EG molar ratio of 1:4 was selected, and further conditions were established (Table 2).
To confirm the catalytic effect on the input amount of betaine, betaine corresponding to 0, 0.1, 0.5, 1% (catalyst/PET, w/w ratio) was added, and glycolysis was performed at 190° C. for 30 minutes. As a result, it was confirmed that the condition of adding betaine corresponding to 0.5% (catalyst/PET, w/w ratio) is optimal. Accordingly, this condition was selected, and further conditions were established (Table 2)
Next, to confirm the effect by glycolysis reaction time, the reaction was performed at 190° C. under various reaction time conditions of 30, 60, 90, and 120 minutes. As a result, it was confirmed that 60 minutes is the optimal condition. […] Afterward, in a biological process, the PET glycolysis product that had been produced under the above conditions was used as a substrate (Table 2). […]
To analyze a PET glycolysis product using betaine as a catalyst, high performance liquid chromatography (HPLC) analysis was performed. HPLC analysis conditions are as follows. As a column, a C18 column (OpitmaPak C18-51001546, 5 μm, 150 mm×4.6 mm) was used, and a column temperature was maintained at 25° C. during the analysis. Two mobile phases, A and B, were used, wherein A is 0.1% trifluoroacetic acid in distilled water, and B is methanol. During the analysis at a flow rate of 1 mL/min for 27 minutes, the proportion of the mobile phase B was maintained at 5% at 0 to 2 minutes, and the proportion of the mobile phase B was changed from 5 to 57% at 2 to 18 minutes. At 18 to 22 minutes, the proportion of the mobile phase B was changed from 57 to 5%. Finally, at 22 to 27 minutes, the proportion of the mobile phase B was maintained at 5%. Chromatography was performed at a wavelength of 254 nm using a UV/Vis detector.

[2] = pH of 50 mM sodium phosphate buffer after adding TPA; format: physicochemical; conditions: TPA 4 g/L in 50 mM sodium phosphate buffer (pH 8)
Description: Based on the defined enzyme input amounts, a hydrolase reaction was performed using the product of PET glycolysis, in which betaine was used, as a substrate. Accordingly, the efficient input amounts of the IsPETase^Mut and IsMHETase^Mut enzymes relative to substrates were to be confirmed without wasting the enzymes. The reaction conditions included a PET glycolysis product including 10 g/L of BHET as a substrate, 50 mM sodium phosphate buffer (pH 8), and a volume of 500 μL. After the reaction was performed at 40° C. for 6 hours, 30 min, 1 hr, 3 hr, and 6 hr, samples were diluted in methanol and centrifuged at 25,188 g for 10 minutes, and followed by analyzing the supernatant through high performance liquid chromatography (HPLC). As a result, in FIG. 6c, when the enzyme input amounts are 2.3 U/L and 4.5 U/L, compared to 9.0 U/L, it was confirmed that the amount of the product TPA is low. As the reaction progressed, it was expected that the pH was lowered and the enzyme activity was lost due to the influence of the product TPA. First, to confirm how low the pH is under the enzymatic hydrolysis reaction conditions due to the influence of TPA, TPA was added at a concentration of 0 to 10 g/L under the condition of 50 mM sodium phosphate buffer (pH 8). As a result, in FIG. 6d, the pHs of all samples were measured with a pH meter and visually confirmed with pH paper. […]

[3] = target: T1, IsMHETase^Mut (Piscinibacter sakaiensis, UniProt A0A0K8P8E7, W397A); assay: Inhibitory effect of catalysts on IsMHETase^Mut enzyme reaction; format: biochemical, Ideonella sakaiensis; conditions: 1 mM; enzyme 2.3 U/L; substrate MHET; 50 mM sodium phosphate buffer (pH 8); 40 °C, 15 minutes
T1 construct: His tag (pET28a vector) (N); made in house; host or cells: E. coli BL21(DE3)
T1 sequence (A0A0K8P8E7 other isoform, or with tags, fused parts or gaps W397A): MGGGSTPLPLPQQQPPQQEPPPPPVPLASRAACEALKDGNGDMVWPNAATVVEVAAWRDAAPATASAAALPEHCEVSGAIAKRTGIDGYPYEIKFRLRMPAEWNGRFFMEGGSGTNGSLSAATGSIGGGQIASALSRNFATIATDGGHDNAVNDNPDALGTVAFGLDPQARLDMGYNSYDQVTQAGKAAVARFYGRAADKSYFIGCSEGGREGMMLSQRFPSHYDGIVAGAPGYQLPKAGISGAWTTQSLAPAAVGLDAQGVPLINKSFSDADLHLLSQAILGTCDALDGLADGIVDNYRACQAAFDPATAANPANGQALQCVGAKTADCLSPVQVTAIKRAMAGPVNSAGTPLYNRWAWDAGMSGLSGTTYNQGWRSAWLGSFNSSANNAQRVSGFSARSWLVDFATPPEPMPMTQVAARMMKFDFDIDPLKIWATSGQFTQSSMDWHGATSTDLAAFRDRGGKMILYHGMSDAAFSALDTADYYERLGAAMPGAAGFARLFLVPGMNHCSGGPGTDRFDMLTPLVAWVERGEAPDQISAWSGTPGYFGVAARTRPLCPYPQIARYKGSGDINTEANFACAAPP
Description: (§1) To confirm whether the metal catalysts used in conventional PET glycolysis and betaine, which is an eco-friendly catalyst selected in this study, can have inhibitory effects on enzymatic hydrolysis, IsPETase^Mut and IsMHETase^Mut enzyme experiments were performed using 1 mM each of betaine, Ca^2+, Co^2+, Cu^2+, Fe^2+, Mg^2+, Mn^2+, Ni^2+, pb^2+, Zn^2+, and Li^+. The experiments were performed under conditions including an enzyme concentration of 2.3 U/L, 2.5 mg each of the substrates BHET and MHET, 50 mM sodium phosphate buffer (pH 8), and a volume of 500 μL. After performing the reaction at 40° C. for 15 minutes, all samples were diluted in methanol and centrifuged at 25,188 g for 10 minutes, followed by analyzing the supernatant through high performance liquid chromatography (HPLC). […] Therefore, the product of PET glycolysis using betaine may be used in enzymatic hydrolysis.

[4] = target: T2, IsPETase^Mut (Piscinibacter sakaiensis, UniProt A0A0K8P6T7, D186H/R280A/S121E); assay: Inhibitory effect of catalysts on IsPETase^Mut enzyme reaction; format: biochemical, Ideonella sakaiensis; conditions: 1 mM; enzyme 2.3 U/L; substrate BHET; 50 mM sodium phosphate buffer (pH 8); 40 °C, 15 minutes
T2 construct: His tag (pET28a vector) (N); made in house; host or cells: E. coli BL21(DE3)
T2 sequence (A0A0K8P6T7 other isoform, or with tags, fused parts or gaps S121E/D186H/R280A): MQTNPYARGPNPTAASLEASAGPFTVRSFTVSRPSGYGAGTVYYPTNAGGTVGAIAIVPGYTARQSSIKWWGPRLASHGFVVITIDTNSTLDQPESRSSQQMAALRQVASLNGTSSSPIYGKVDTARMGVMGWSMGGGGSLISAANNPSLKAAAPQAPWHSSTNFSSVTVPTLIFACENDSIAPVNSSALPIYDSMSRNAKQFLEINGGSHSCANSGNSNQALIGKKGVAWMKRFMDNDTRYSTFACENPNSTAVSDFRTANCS
Description: as §1

[5] = PET film; pH 7.0; 30 °C; 18 h; Yoshida et al.; cited from earlier work
[6] = PET/EG 1:4, catalyst/PET 0.5 wt %, 60 min
[7] = PET/EG 1:3, catalyst/PET 0.5 wt %, 30 min
[8] = PET/EG 1:4, catalyst/PET 0.1 wt %, 30 min
[9] = PET/EG 1:4, catalyst/PET 0.5 wt %, 30 min
[10] = PET/EG 1:4, catalyst/PET 0.5 wt %, 90 min
[11] = PET/EG 1:4, catalyst/PET 0.5 wt %, 120 min
[12] = PET/EG 1:4, catalyst/PET 1 wt %, 30 min
[13] = PET/EG 1:5, catalyst/PET 0.5 wt %, 30 min
[14] = PET/EG 1:6, catalyst/PET 0.5 wt %, 30 min
[15] = PET/EG 1:10, catalyst/PET 0.5 wt %, 30 min
[16] = PET/EG 1:20, catalyst/PET 0.5 wt %, 30 min

Molecule: C1CN=C2NCCCN2C1 [TBD, 1,5,7-triazabicyclo[4.4.0]dec-5-ene, reference compound]
collective yield of BHET and MHET [1, 6]: 55.1% | titer of BHET [1, 6]: 328.4 g/L | titer of MHET [1, 6]: 45.9 g/L

pH [2]: 5.47
Molecule: O=C(O)c1ccc(C(=O)O)cc1 [TPA, terephthalic acid]

Molecule: C[N+](C)(C)CC(=O)O [betaine]
inhibitory effect on IsMHETase^Mut enzyme reaction [3]: no inhibitory effect | inhibitory effect on IsPETase^Mut enzyme reaction [4]: no inhibitory effect | collective yield of BHET and MHET [1, 7]: 34.6% | titer of BHET [1, 7]: 256.8 g/L | titer of MHET [1, 7]: 24.9 g/L | collective yield of BHET and MHET [1, 8]: 26.6% | titer of BHET [1, 8]: 185.3 g/L | collective yield of BHET and MHET [1, 9]: 52.3% | titer of BHET [1, 9]: 330.6 g/L | titer of MHET [1, 9]: 27.6 g/L | collective yield of BHET and MHET [1, 6]: 58.7% | titer of BHET [1, 6]: 368.6 g/L | titer of MHET [1, 6]: 32.8 g/L | collective yield of BHET and MHET [1, 10]: 55.1% | titer of BHET [1, 10]: 341.2 g/L | titer of MHET [1, 10]: 35.1 g/L | collective yield of BHET and MHET [1, 11]: 53.8% | titer of BHET [1, 11]: 313.8 g/L | titer of MHET [1, 11]: 50.4 g/L | collective yield of BHET and MHET [1, 12]: 42.4% | titer of BHET [1, 12]: 286.9 g/L | titer of MHET [1, 12]: 6.8 g/L | collective yield of BHET and MHET [1, 13]: 52.7% | titer of BHET [1, 13]: 307.6 g/L | titer of MHET [1, 13]: 21.6 g/L | collective yield of BHET and MHET [1, 14]: 51.6% | titer of BHET [1, 14]: 268.3 g/L | titer of MHET [1, 14]: 19.1 g/L | collective yield of BHET and MHET [1, 15]: 49.8% | titer of BHET [1, 15]: 189.8 g/L | titer of MHET [1, 15]: 6.7 g/L | collective yield of BHET and MHET [1, 16]: 37.2% | titer of BHET [1, 16]: 81.3 g/L | titer of MHET [1, 16]: 2.9 g/L

B1: /sPETase^Wild: wild-type PETase of I. sakaiensis, SEQ ID NO: 3 (protein)
chain: HMQTNPYARGPNPTAASLEASAGPFTVRSFTVSRPSGYGAGTVYYPTNAGGTVGAIAIVPGYTARQSSIKWWGPRLASHGFVVITIDTNSTLDQPSSRSSQQMAALRQVASLNGTSSSPIYGKVDTARMGVMGWSMGGGGSLISAANNPSLKAAAPQAPWDSSTNFSSVTVPTLIFACENDSIAPVNSSALPIYDSMSRNAKQFLEINGGSHSCANSGNSNQALIGKKGVAWMKRFMDNDTRYSTFACENPNSTRVSDFRTANCSLE
modifications: IsMHETase_wt
sum of TPA, MHET and BHET [5]: (0.3 mM
